Assay results as given in patent US20080318993A1 (Endo Pharmaceuticals, Inc., priority 2007, published 2008).

Legend:
[1] = Example 5: urinary excretion of oxymorphone and metabolites in hepatic impairment vs healthy controls; conditions: for mean amount excreted in the urine: percent of administered dose, through 120 hours; for conversion of oxymorphone to the metabolite reduced by: from urine ratios
From the text: (§1) While in the clinic, the subjects were to refrain from strenuous physical activity.

[2] = 10 mg oral oxymorphone, cited from earlier work
[3] = Example 5: plasma pharmacokinetics of EN3202 20 mg in hepatic impairment vs healthy controls; set-up: AUC point estimate, mild hepatic impairment vs healthy controls / Cmax point estimate, mild hepatic impairment vs healthy controls: unit not given beside the values; conditions: for AUCT / Cmax / T½ / λz / AUC: mean (SD); for Tmax: median (range); for AUC: plasma, single 20 mg EN3202, fasting; for mean (±SD) ratio of plasma metabolite AUC to oxymorphone AUC: AUC converted to molar concentrations; for increase in average AUC relative to controls: arithmetic means; for conversion of oxymorphone to the metabolite reduced by: from mean plasma metabolite ratios
Experimental: as §1
All study medications were supplied by the sponsor. […] A single 20 mg dose EN3202 was administered following an overnight fast (from approximately 22:00 on the evening prior to dose administration) at approximately 08:00, and participants were not allowed to eat until at least four hours after the dose.
All doses were administered with 240 mL of ambient water. Participants were instructed to drink all of the water.
Pharmacokinetic parameters were calculated using model-independent methods.
All pharmacokinetic results are summarized using appropriate descriptive statistics. […] One-way ANOVA was conducted using the model PKVAR=group, where group was mild hepatic impairment, moderate-severe hepatic impairment, or healthy control. Point estimates of the impaired versus control group differences and the corresponding 90% confidence limits were constructed.

[4] = moderate-severe hepatic impairment

SMILES	mean amount excreted in the urine ([1]; control group) [%]	mean amount excreted in the urine ([1]; mild hepatic impairment) [%]	mean amount excreted in the urine [1, 4] [%]	AUCT ([3]; Healthy Controls)	Cmax ([3]; Healthy Controls)	T½ ([3]; Healthy Controls)	λz ([3]; Healthy Controls)	Tmax ([3]; Healthy Controls)	AUC ([3]; Healthy Controls)	AUCT ([3]; Mild Impairment)	Cmax ([3]; Mild Impairment)	T½ ([3]; Mild Impairment)	λz ([3]; Mild Impairment)	Tmax ([3]; Mild Impairment)	AUC ([3]; Mild Impairment)	AUCT ([3]; Moderate-Severe Impairment)	Cmax ([3]; Moderate-Severe Impairment)	T½ ([3]; Moderate-Severe Impairment)	λz ([3]; Moderate-Severe Impairment)	Tmax ([3]; Moderate-Severe Impairment)	also measured
CN1CC[C@]23c4c5ccc(O)c4O[C@H]2C(O)CC[C@@]3(O)[C@H]1C5 (stereo partly drawn) [6-OH-oxymorphone, 6-hydroxy oxymorphone]	0.25	0.71	0.88	10.80 (9.65) ng · hr/mL	0.72 (0.32) ng/mL	19.19 (11.75) hr	0.0532 (0.0356) hr^−1	1.25 (1.0-4.0) hr	14.76 (11.51) ng · hr/mL	14.11 (9.73) ng · hr/mL	1.12 (0.79) ng/mL	17.54 (13.12) hr	0.0545 (0.0269) hr^−1	1.25 (0.5-3.0) hr	17.35 (11.17) ng · hr/mL	29.25 (20.17) ng · hr/mL	1.78 (1.00) ng/mL	13.87 (8.02) hr	0.0632 (0.0303) hr^−1	1.75 (1.0-6.0) hr	urinary excretion essentially complete by ([1]; after single 20 mg dose): ≤ 96 h; Urinary recovery, conjugated [2]: 2.6%; Urinary recovery, free [2]: ~0.3%; Urinary recovery, of the dose ([2]; free plus conjugated): approximately 3%; AUC ([3]; Moderate-Severe Impairment): 32.12 (19.80) ng · hr/mL; mean (±SD) ratio of plasma metabolite AUC to oxymorphone AUC ([3]; controls): 0.66 (0.30); increase in average AUC relative to controls ([3]; mild hepatic impairment): 1.18 fold; conversion of oxymorphone to the metabolite reduced by ([3]; mild hepatic impairment): approximately 17%; AUC increase relative to healthy controls ([3]; mild hepatic impairment, log-transformed comparison): 1.36 fold; mean (±SD) ratio of plasma metabolite AUC to oxymorphone AUC ([3]; mild impairment): 0.55 (0.10); Cmax increase relative to healthy controls ([3]; mild impairment, log-transformed comparison): 1.40 fold; conversion of oxymorphone to the metabolite reduced by [3, 4]: ~26%; mean (±SD) ratio of plasma metabolite AUC to oxymorphone AUC ([3]; moderate-severe impairment): 0.49 (0.37); increase in average AUC relative to controls ([3]; moderate-severe impairment): 2.18 fold
CN1CC[C@]23c4c5ccc(O[C@@H]6O[C@H](C(=O)O)[C@@H](O)[C@H](O)[C@H]6O)c4O[C@H]2C(=O)CC[C@@]3(O)[C@H]1C5 [Oxymorphone-3-glucuronide, oxymorphone-3-glucuronide]	38.1	39.3	33.7	2886.8 (883.9) ng · hr/mL	234.3 (41.7) ng/mL	8.89 (3.00) hr	0.0859 (0.0264) hr^−1	3.0 (1.5-4.0) hr	2979.6 (896.1) ng · hr/mL	2836.7 (1091.9) ng · hr/mL	274.1 (95.8) ng/mL	8.21 (3.87) hr	0.0974 (0.0367) hr^−1	3.0 (3.0-4.0) hr	2954.1 (1136.2) ng · hr/mL	2629.3 (1457.8) ng · hr/mL	212.0 (100.5) ng/mL	7.40 (2.98) hr	0.1075 (0.0435) hr^−1	3.5 (3.0-4.0) hr	mean ratio metabolite:oxymorphone excreted in the urine ([1]; healthy controls): 79.05; mean ratio metabolite:oxymorphone excreted in the urine ([1]; mild hepatic impairment): 39.43; conversion of oxymorphone to the metabolite reduced by ([1]; mild hepatic impairment): approximately 50%; mean ratio metabolite:oxymorphone excreted in the urine [1, 4]: 33.76; conversion of oxymorphone to the metabolite reduced by [1, 4]: ~57%; AUC ([3]; Moderate-Severe Impairment): 2713.9 (1498.6) ng · hr/mL; mean (±SD) ratio of plasma metabolite AUC to oxymorphone AUC ([3]; controls): 104.1 (39.5); circulating concentrations exceed those of the parent compound by ([3]; healthy control group): approximately 100 fold; AUC point estimate, mild hepatic impairment vs healthy controls ([3]; mild hepatic impairment): 0.972; Cmax point estimate, mild hepatic impairment vs healthy controls ([3]; mild hepatic impairment): 1.133; conversion of oxymorphone to the metabolite reduced by ([3]; mild hepatic impairment): approximately 35%; mean (±SD) ratio of plasma metabolite AUC to oxymorphone AUC ([3]; mild impairment): 67.2 (27.0); conversion of oxymorphone to the metabolite reduced by [3, 4]: ~56%; AUC as percent of control ([3]; moderate-severe impairment): approximately 80%; Cmax as percent of control ([3]; moderate-severe impairment): approximately 80%; circulating concentrations exceed those of the parent compound by ([3]; moderate-severe impairment): 45 fold; mean (±SD) ratio of plasma metabolite AUC to oxymorphone AUC ([3]; moderate-severe impairment): 45.52 (39.2); mean metabolite-to-parent ratio lower than in the control group ([3]; moderate-severe impairment, in both plasma and urine): 2,3 fold
